Reference: patent US12673942B2, “Azabicyclyl-substituted heterocycles as fungicides” (Bayer Aktiengesellschaft, priority 2020, dated 2026)

Experiments:
Pyricularia oryzae = assay: microbe, parasite or virus in culture; type: cell-based; settings: 120 h, read-out: efficacy (inhibition of fungal growth)
Alternaria alternata = Alternaria alternata in vitro cell test; type: cell-based; settings: 120 h, 20 ppm of active ingredient, liquid culture, 5 days incubation, read-out: efficacy (inhibition of fungal growth)
Procedure: (§1) • Solvent: […] Fungicides were solubilized in DMSO and the solution used to prepare the required range of concentrations. The final concentration of DMSO used in the assay was ≤1%. A spore suspension of Alternaria alternata was prepared and diluted to the desired spore density. Fungicides were evaluated for their ability to inhibit spore germination and mycelium growth in liquid culture assay. The compounds were added in the desired concentration to the culture medium with spores. After 5 days incubation, fungi-toxicity of compounds was determined by spectrometric measurement of mycelium growth. Inhibition of fungal growth was determined by comparing the absorbance values in wells containing the fungicides with the absorbance in control wells without fungicides.

[1] = Measurement of Log P values by HPLC on reversed phase columns (EEC directive 79/831 Annex V.A8); type: physicochemical
Procedure: Measurement of Log P values as provided herein was performed according to EEC directive 79/831 Annex V.A8 by HPLC (High Performance Liquid Chromatography) on reversed phase columns with the following methods: • ^[a] Log P value is determined by measurement of LC-UV, in an acidic range, with 0.1% formic acid in water and acetonitrile as eluent (linear gradient from 10% acetonitrile to 95% acetonitrile). • ^[b] Log P value is determined by measurement of LC-UV, in a neutral range, with 0.001 molar ammonium acetate solution in water and acetonitrile as eluent (linear gradient from 10% acetonitrile to 95% acetonitrile). • ^[c] Log P value is determined by measurement of LC-UV, in an acidic range, with 0.1% phosphoric acid and acetonitrile as eluent (linear gradient from 10% acetonitrile to 95% acetonitrile).
If more than one Log P value is available within the same method, all the values are given and separated by “+”. […]

[2] = test system: Colletotrichum lindemuthianum; assay: Colletotrichum lindemuthianum in vitro cell test; type: cell-based; settings: 144 h, 20 ppm of active ingredient, liquid culture, 6 days incubation, read-out: efficacy (inhibition of fungal growth)
Procedure: as §1, with “1%.” for “≤1%.”, “Colletotrichum lindemuthianum” for “Alternaria alternata”, “6” for “5”

Fusarium culmorum = Fusarium culmorum in vitro cell test; type: cell-based; settings: 96 h, 20 ppm of active ingredient, liquid culture, 4 days incubation, read-out: efficacy (inhibition of fungal growth)
Procedure: • Solvent: DMSO • Culture medium: 14.6 g anhydrous D-glucose (VWR), 7.1 g Mycological Peptone (Oxoid), 1.4 g granulated Yeast Extract (Merck), QSP 1 liter • Inoculum: spore suspension
Fungicides were solubilized in DMSO and the solution used to prepare the required range of concentrations. The final concentration of DMSO used in the assay was ≤1%.
A spore suspension of Fusarium culmorum was prepared and diluted to the desired spore density.
Fungicides were evaluated for their ability to inhibit spore germination and mycelium growth in liquid culture assay. The compounds were added in the desired concentration to the culture medium with spores. After 4 days incubation, fungi-toxicity of compounds was determined by spectrometric measurement of mycelium growth. Inhibition of fungal growth was determined by comparing the absorbance values in wells containing the fungicides with the absorbance in control wells without fungicides.

[3] = method [a]: LC-UV, acidic range, 0.1% formic acid in water and acetonitrile as eluent
[4] = method [b]: LC-UV, neutral range, 0.001 molar ammonium acetate solution in water and acetonitrile as eluent

| SMILES | inhibition at 20 ppm (Alternaria alternata) | chromatographic logP [1, 3] | also measured |
| --- | --- | --- | --- |
| Cc1ccc(CC2CN=C(c3c(Oc4cccc(C(F)(F)F)c4)cnc4ccccc34)N2)c(C)c1 (racemic) [Compound I-011, 4-[(5RS)-5-(2,4-dimethylbenzyl)-4,5-dihydro-1H-imidazol-2-yl]-3-[3-(trifluoromethyl)phenoxy]quinoline] | ≥ 70% | 2.57 | inhibition at 20 ppm (Pyricularia oryzae): ≥ 70%; inhibition at 20 ppm [2]: ≥ 70% |
| Cc1ccc(C[C@@H]2CON=C(c3c(Oc4cccc(C(F)(F)F)c4)cnc4ccccc34)N2)c(C)c1 (racemic) [Compound I-004] | ≥ 70% | 4.19 | inhibition at 20 ppm (Pyricularia oryzae): ≥ 70%; inhibition at 20 ppm [2]: ≥ 70%; inhibition at 20 ppm (Fusarium culmorum): ≥ 70% |
| Cn1cc(-c2ccc(C[C@@H]3CON=C(c4c(Oc5cccc(C(F)(F)F)c5)nnc5ccccc45)N3)c(Cl)c2)cn1 (racemic) [Compound I-008] | ≥ 70% | 3.37 | inhibition at 20 ppm (Pyricularia oryzae): ≥ 70%; inhibition at 20 ppm [2]: ≥ 70% |
| Cc1ccc(C[C@@H]2CON=C(c3c(Oc4cccc(C5CC5)c4)nnc4ccccc34)N2)c(C)c1 (racemic) [Compound I-003] | ≥ 70% | 4.11 | inhibition at 20 ppm (Pyricularia oryzae): ≥ 70%; inhibition at 20 ppm [2]: ≥ 70%; inhibition at 20 ppm (Fusarium culmorum): ≥ 70% |
| Cc1ccc(CC2CON=C(c3c(Oc4cccc(Cl)c4)nnc4ccccc34)N2)c(C)c1 (racemic) [Compound I-002, 3-(3-chlorophenoxy)-4-[(5RS)-5-(2,4-dimethylbenzyl)-5,6-dihydro-4H-1,2,4-oxadiazin-3-yl]cinnoline] | ≥ 70% | 3.96 | inhibition at 20 ppm (Pyricularia oryzae): ≥ 70%; inhibition at 20 ppm [2]: ≥ 70%; inhibition at 20 ppm (Fusarium culmorum): ≥ 70% |
| Cc1cccc(Oc2nnc3ccccc3c2C2=NOCC(Cc3ccc(C)cc3C)N2)c1 (racemic) [Compound I-001, 4-[(5RS)-5-(2,4-dimethylbenzyl)-5,6-dihydro-4H-1,2,4-oxadiazin-3-yl]-3-(3-methylphenoxy)cinnoline] | ≥ 70% | 3.85 | inhibition at 20 ppm (Pyricularia oryzae): ≥ 70%; inhibition at 20 ppm [2]: ≥ 70%; inhibition at 20 ppm (Fusarium culmorum): ≥ 70% |
| Cc1ccc(C[C@@H]2CON=C(c3c(Oc4cccc(C(F)(F)F)c4)nnc4cc(C)ccc34)N2)c(C)c1 (racemic) [Compound I-005] | ≥ 70% | 4.32 | inhibition at 20 ppm (Pyricularia oryzae): ≥ 70%; chromatographic logP [1, 4]: 4.27; inhibition at 20 ppm [2]: ≥ 70%; inhibition at 20 ppm (Fusarium culmorum): ≥ 70% |
| Cc1ccc(C[C@H](CON)NC(=O)c2c(Oc3cccc(C4CC4)c3F)nnc3c2CCC3)c(C)c1 (racemic) [Compound 4-15] |  | 2.83 |  |
| Cc1ccc(C[C@H](CCl)N/C(=N\O)c2c(Oc3cccc(C4CC4)c3F)nnc3ccccc23)c(C)c1 (racemic) [Compound 12-01, N-[(2RS)-1-chloro-3-(2,4-dimethylphenyl)propan-2-yl]-3-(3-cyclopropyl-2-fluorophenoxy)-N′-hydroxycinnoline-4-carboximidamide] |  | 4.7 |  |
| Cc1ccc(C[C@H](N)CCl)c(C)c1 (racemic) [Compound 9-02] |  | 1.24 |  |
| Cc1ccc(CC2CNN=C(c3c(Oc4cccc(C(F)(F)F)c4)cnc4ccccc34)N2)c(C)c1 (racemic) [Compound I-010, 4-[(5RS)-5-(2,4-dimethylbenzyl)-1,4,5,6-tetrahydro-1,2,4-triazin-3-yl]-3-[3-(trifluoromethyl)phenoxy]quinoline] | ≥ 70% | 2.57 |  |
| Cc1ccc(C[C@H](CCl)NC(=O)c2c(Br)cnc3nccnc23)c(C)c1 (racemic) [Compound 14-01] |  | 2.97 |  |
| Cc1ccc(C[C@H](CON2C(=O)c3ccccc3C2=O)NC(=O)c2c(Oc3cccc(C(F)(F)F)c3)nnc3c2CCCC3)c(C)c1 (racemic) [Compound 3-09] |  | 4.59 |  |
| Cc1ccc(C[C@@H](CON)NC(=O)c2c(Oc3cccc(C(F)(F)F)c3)nnc3cc(C)ccc23)c(C)c1 (racemic) [Compound 4-01] |  | 3.42 | LogP [1, 3]: 3.51; chromatographic logP [1, 4]: 3.62 |
| C#Cc1cccc(Oc2cnc3ccccc3c2C(=O)N[C@@H](CON2C(=O)c3ccccc3C2=O)Cc2ccc(C)cc2C)c1 (racemic) [Compound 3-03] |  | 4.44 |  |
| Cc1ccc(C[C@H](CON)NC(=O)c2c(Oc3cccc(C(F)(F)F)c3)nnc3c2CCC3)c(C)c1 (racemic) [Compound 4-13] |  | 2.78 |  |
| Cc1ccc(C[C@H](CCl)NC(=O)c2c(Oc3cccc(C(F)(F)F)c3)cnc3ccoc23)c(C)c1 (racemic) [Compound 10-06] |  | 4.55 |  |
| Cc1ccc(C[C@@H]2CON=C(c3c(Oc4cccc(Br)c4F)cnc4ccccc34)N2)c(Cl)c1 (racemic) [Compound I-030] |  | 4.37 |  |
| Cc1ccc(C[C@H](CON2C(=O)c3ccccc3C2=O)NC(=O)c2c(Oc3cccc(C(F)F)c3)nnc3c2CCCC3)c(C)c1 (racemic) [Compound 3-13] |  | 4.13 |  |
| Cc1ccc(C[C@H](CON)NC(=O)c2c(Oc3cccc(Br)c3F)cnc3ccccc23)c(C)c1 (racemic) [Compound 4-07] |  | 3.11 |  |
| Cc1ccc(C[C@H](CCl)NC(=O)c2c(Oc3cccc(Br)c3F)cnc3ccccc23)c(Cl)c1 (racemic) [Compound 10-04] |  | 4.7 |  |
| Cc1ccc(C[C@H](CCl)NC(=NO)c2c(Oc3cccc(C(F)F)c3)cnc3ccccc23)c(Cl)c1 (racemic) [Compound 12-04] |  | 4.28 |  |
| Cc1ccc(C[C@H](CCl)NC(=O)c2c(Oc3cccc(C4CC4)c3F)cnc3ccccc23)c(Cl)c1 (racemic) [Compound 10-03] |  | 5 |  |
| Cc1ccc(C[C@@H]2CON=C(c3c(Oc4cccc(Br)c4F)nnc4c3CCCC4)N2)c(C)c1 (racemic) [Compound I-024] |  | 4.01 |  |
| Cc1ccc(C[C@@H]2CN=C(c3c(Oc4cccc(Cl)c4)nnc4ccccc34)N2)c(C)c1 (racemic) [Compound I-012] | ≥ 70% | 2.46 | inhibition at 20 ppm (Pyricularia oryzae): ≥ 70%; inhibition at 20 ppm [2]: ≥ 70% |
| Cc1ccc(C[C@@H]2CON=C(c3c(Oc4cccc(C)c4F)cnc4ccccc34)N2)c(C)c1 (racemic) [Compound I-020] |  | 4.15 |  |
| N[C@H](CCl)Cc1ccc(Br)cc1Cl (racemic) [Compound 9-03] |  | 1.37 |  |
| Cc1ccc(C[C@H](CON)NC(=O)c2c(Oc3cccc(C(F)(F)F)c3)cnc3ccccc23)c(C)c1 (racemic) [Compound 4-02] |  | 3.17 |  |
| C#Cc1cccc(Oc2cnc3ccccc3c2C(=O)N[C@@H](CON)Cc2ccc(C)cc2C)c1 (racemic) [Compound 4-04] |  | 2.83 |  |
